Experimental data reported in PMC2820250 (Journal of the American Chemical Society, 2009).
Structures can show the parent of a compound that is named as a salt.

Molecular target: recombinant human BACE-1 (Homo sapiens, UniProt P56817)
Experiment: BACE-1 FRET peptide cleavage assay
Assay type: biochemical
Details: for IC50, inhibition of cleavage of FRET peptide by BACE-1: FRET peptide with Swedish variant, pH 4.5, 2 h, 25 °C, triplicate; for inhibitory activity against BACE-1 cleavage of FRET peptide, in words: qualitative statement

recombinant human BACE-1, sequence (P56817 46-501): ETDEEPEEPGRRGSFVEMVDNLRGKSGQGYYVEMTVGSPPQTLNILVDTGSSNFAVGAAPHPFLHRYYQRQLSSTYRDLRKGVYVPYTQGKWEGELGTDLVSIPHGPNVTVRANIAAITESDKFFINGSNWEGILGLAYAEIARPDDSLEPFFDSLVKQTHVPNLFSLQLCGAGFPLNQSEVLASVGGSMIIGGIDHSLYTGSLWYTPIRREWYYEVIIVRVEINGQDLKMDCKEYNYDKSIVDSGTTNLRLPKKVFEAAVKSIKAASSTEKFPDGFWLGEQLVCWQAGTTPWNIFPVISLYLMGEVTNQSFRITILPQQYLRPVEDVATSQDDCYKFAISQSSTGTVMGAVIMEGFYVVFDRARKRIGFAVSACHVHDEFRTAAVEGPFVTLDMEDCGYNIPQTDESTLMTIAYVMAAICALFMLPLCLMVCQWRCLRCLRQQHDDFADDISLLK

Row | IC50, inhibition of cleavage of FRET peptide by BACE-1 [µg/ml] | inhibitory activity against BACE-1 cleavage of FRET peptide, in words | reduction of potency relative to compound 83 (acetamido moieties instead of N-sulfates) [fold] | Compound
1 | >300 |  |  | 5-Aminopentyl [(β-D-glucopyranosyluronate)-(1→4)-O-(2-deoxy-2-sulfamino-6-O-sulfonate-α-D-glucopyranoside)-(1→4)-O-(2-O-sulfonate-α-L-idopyranosyluronate)-(1→4)-2-deoxy-2-sulfoamino-6-O-sulfonate-α-D-glucopyranoside heptasodium salt [Compound 86]
2 | 64 |  |  | NCCCCCOC1OC(COS(=O)(=O)O)C(OC2OC(C(=O)O)C(OC3OC(COS(=O)(=O)O)C(OC4OC(C(=O)O)C(OC5OC(COS(=O)(=O)O)C(OC6OC(C(=O)O)C(O)C(O)C6O)C(O)C5NS(=O)(=O)O)C(O)C4O)C(O)C3NS(=O)(=O)O)C(O)C2O)C(O)C1NS(=O)(=O)O [Compound 69, 5-aminopentyl [(β-D-glucopyranosyluronate)-(1→4)-(2-deoxy-2-sulfoamino-6-O-sulfonato-α-D-glucopyranoside)-(1→4)-O-(α-L-idopyranosyluronate)-(1→4)-O-(2-deoxy-2-sulfoamino-6-O-sulfanate-α-D-glucopyranoside)-(1→4)-(β-D-glucopyranosyluronate)]-(1→4)-O-2-deoxy-N-sulfoamino-6-O-sulfonate-α-D-glucopyranoside nonasodium salt]
3 | 240 |  |  | NCCCCCO[C@H]1O[C@H](COS(=O)(=O)[O-])[C@@H](O[C@@H]2O[C@@H](C(=O)[O-])[C@@H](O[C@H]3O[C@H](COS(=O)(=O)[O-])[C@@H](O[C@@H]4O[C@H](C(=O)[O-])[C@@H](O)[C@H](O)[C@H]4O)[C@H](O)[C@H]3NS(=O)(=O)[O-])[C@H](O)[C@H]2O)[C@H](O)[C@H]1NS(=O)(=O)[O-].[Na+].[Na+].[Na+].[Na+].[Na+].[Na+] [Compound 79]
4 | 104 |  |  | CC(=O)N[C@H]1[C@@H](O[C@H]2[C@H](O)[C@@H](O)[C@H](O[C@H]3[C@H](O)[C@@H](NC(C)=O)[C@@H](OCCCCCN)O[C@@H]3COS(=O)(=O)[O-])O[C@@H]2C(=O)[O-])O[C@H](COS(=O)(=O)[O-])[C@@H](O[C@@H]2O[C@@H](C(=O)[O-])[C@@H](O)[C@H](O)[C@H]2O)[C@@H]1O.[Na+].[Na+].[Na+].[Na+] [Compound 80]
5 | 35 | modest activity | 10 | CC(=O)N[C@H]1[C@@H](O[C@H]2[C@H](O)[C@@H](O)[C@H](O[C@H]3[C@H](O)[C@@H](NC(C)=O)[C@@H](OCCCCCN)O[C@@H]3COS(=O)(=O)[O-])O[C@H]2C(=O)[O-])O[C@H](COS(=O)(=O)[O-])[C@@H](O[C@@H]2O[C@@H](C(=O)[O-])[C@@H](O)[C@H](O)[C@H]2O)[C@@H]1O.[Na+].[Na+].[Na+].[Na+] [Compound 82]
6 | 4.6 | relatively high potency |  | NCCCCCO[C@H]1O[C@H](COS(=O)(=O)[O-])[C@@H](O[C@@H]2O[C@@H](C(=O)[O-])[C@@H](O[C@H]3O[C@H](COS(=O)(=O)[O-])[C@@H](O[C@@H]4O[C@@H](C(=O)[O-])[C@@H](O)[C@H](O)[C@H]4O)[C@H](O)[C@H]3NS(=O)(=O)[O-])[C@H](O)[C@H]2O)[C@H](O)[C@H]1NS(=O)(=O)[O-].[Na+].[Na+].[Na+].[Na+].[Na+].[Na+] [Compound 83]

Further lines, the compound ahead of its results:

Row | Compound | IC50, inhibition of cleavage of FRET peptide by BACE-1 [µg/ml] | inhibitory activity against BACE-1 cleavage of FRET peptide, in words | reduction of potency relative to compound 83 (acetamido moieties instead of N-sulfates) [fold]
7 | 5-Aminopentyl [(α-L-idopyranosyluronate)-(1→4)-O-(2-acetamido-2-deoxy-6-O-sulfonate-α-D-glucopyranoside)-(1→4)-O-(2-O-sulfonato-α-L-idopyranosyl-uronate)]-(1→4)-2-deoxy-2-acetamido-6-O-sulfonate-α-D-glucopyranoside penta sodium salt [Compound 84] | >300 |  | 
8 | 5-Aminopentyl [(β-D-glucopyranosyluronate)-(1→4)-O-(2-acetamido-2-deoxy-6-O-sulfonato- α-D-glucopyranoside)-(1→4)-O-(2-O-sulfonato-α-L-idopyranosyluronate)]-(1→4)-2-deoxy-2-acetamido-6-O-sulfonate-α-D-glucopyranoside penta sodium salt [Compound 85] | 167 |  | 
9 | CC(=O)N[C@H]1[C@@H](O[C@H]2[C@H](O)[C@@H](O)[C@H](O[C@H]3[C@H](O)[C@@H](NC(C)=O)[C@@H](OCCCCCN)O[C@@H]3COS(=O)(=O)[O-])O[C@@H]2C(=O)[O-])O[C@H](COS(=O)(=O)[O-])[C@@H](O[C@@H]2O[C@H](C(=O)[O-])[C@@H](O)[C@H](O)[C@H]2O)[C@@H]1O.[Na+].[Na+].[Na+].[Na+] [Compound 76] | 39 | modest activity | 
10 | NCCCCCO[C@H]1O[C@H](COS(=O)(=O)[O-])[C@@H](O[C@@H]2O[C@H](C(=O)[O-])[C@@H](O[C@H]3O[C@H](COS(=O)(=O)[O-])[C@@H](O[C@@H]4O[C@H](C(=O)[O-])[C@@H](O)[C@H](O)[C@H]4O)[C@H](O)[C@H]3NS(=O)(=O)[O-])[C@H](O)[C@H]2O)[C@H](O)[C@H]1NS(=O)(=O)[O-].[Na+].[Na+].[Na+].[Na+].[Na+].[Na+] [Compound 77] | 97 | modest activity | 
11 | CC(=O)N[C@H]1[C@@H](O[C@H]2[C@H](O)[C@@H](O)[C@H](O[C@H]3[C@H](O)[C@@H](NC(C)=O)[C@@H](OCCCCCN)O[C@@H]3COS(=O)(=O)[O-])O[C@H]2C(=O)[O-])O[C@H](COS(=O)(=O)[O-])[C@@H](O[C@@H]2O[C@H](C(=O)[O-])[C@@H](O)[C@H](O)[C@H]2O)[C@@H]1O.[Na+].[Na+].[Na+].[Na+] [Compound 78] | >300 |  | 
12 | NCCCCCO[C@H]1O[C@H](COS(=O)(=O)[O-])[C@@H](O[C@@H]2O[C@H](C(=O)[O-])[C@@H](O[C@H]3O[C@H](COS(=O)(=O)[O-])[C@@H](O[C@@H]4O[C@@H](C(=O)[O-])[C@@H](O)[C@H](O)[C@H]4O)[C@H](O)[C@H]3NS(=O)(=O)[O-])[C@H](O)[C@H]2O)[C@H](O)[C@H]1NS(=O)(=O)[O-].[Na+].[Na+].[Na+].[Na+].[Na+].[Na+] [Compound 81, 5-aminopentyl [(L-α-idopyranosyluronate)-(1→4)-O-(2-deoxy-2-sulfoamino-6-O-sulfonate-α-D-glucopyranoside)-(1→4)-O-(β-D-glucopyranosyluronate)]-(1→4)-2-deoxy-2-sulfoamino-6-O-sulfonate-α-D-glucopyranoside hexasodium salt] | 290 |  | 
